Structures are written as SMILES.

What all share (assay type): in vivo, human
For series [1], the system named is recreational marijuana users. Description: Wanting More Drug rating (drug craving) after acute dose. Particulars: adjusted for baseline. From the text:
(§1) FIGS. 2A-2D: Blood Pressure, Pulse and Wanting More Drug Rating, adjusted for Baseline.
(§2) Sessions were completed one-week apart to allow for an adequate washout period between sessions.

Series [2] can be described thus: Plasma levels of CBD and THC after acute dose (Example 1 cross-over study). Particulars: over the course of 4.45 hours (285 minutes), recreational marijuana users. How it is done:
FIGS. 1A-1B: Plasma levels of CBD and THC—adjusted for baseline, for each of the dose conditions over the course of […] (285 minutes).
as §2

Series [3] has as its system recreational marijuana users. The experiment in a line: Provoked pain and anxiety ratings during adapted CPT protocol. Conditions: versus 40 CBD+20 THC, 100 CBD alone and 40 CBD alone; CBD alone versus CBD with low doses of THC (4:1 and 3:1).
From the text: FIGS. 3A-3B: Provoked average pain and anxiety (adjusted for baseline) ratings during adapted CPT protocol.
as §2
(§3) The first study was directed towards assessing safety of the THC and CBD doses in healthy, recreational cannabis users. […] The novel pain provocation experimental method allowed for detection of this effect within this first safety protocol assessment.

Series [4] is described as follows: Blood pressure and pulse after acute dose (Example 1 safety study). Particulars: recreational marijuana users.
From the text: as §1, §2, §3

On to `C=C(C)[C@@H]1CCC(C)=C[C@H]1c1c(O)cc(CCCCC)cc1O` [CBD40, cannabidiol], for which the “average drug craving (want more drug), relative to placebo” value in series [1] is “significantly reduced”. In series [2], the “plasma THC levels adjusted for baseline, relative to placebo” value is “not”.
For `C=C(C)[C@@H]1CCC(C)=C[C@H]1c1c(O)cc(CCCCC)cc1O` [CBD, cannabidiol], the “reducing pain and stress responses, comparison between dose conditions” value in series [3] is “not as effective”.
Take `C=C(C)[C@@H]1CCC(C)=C[C@H]1c1c(O)cc(CCCCC)cc1O` [CBD100, cannabidiol]: the “average drug craving (want more drug), relative to placebo” value in series [1] was “significantly reduced”. In series [2], the “plasma CBD levels adjusted for baseline, relative to placebo” value was “significantly increased” and the “plasma THC levels adjusted for baseline, relative to placebo” value is listed as “not”. Further, the “diastolic BP adjusted for baseline, relative to placebo” value in series [4] is listed as “significantly increased”.

The values above are taken from US20240358726A1, “SPECIFIC T[…] MARIJUANA DOSES FOR STRESS AND PAIN” (Yale University, priority 2021, published 2024).
